From patent US4263427A, “Monensin urethane derivatives” (priority 1979, dated 1981)
Values after ≈ are worked out from the molar mass of the structure shown. Where a name gives a salt, the structure may show the parent alone. Read-outs that look alike come from different tables or passages of the source.

Columns and labels:
Bacillus megaterium 8CU = assay: Minimum Inhibitory Concentration, agarwell diffusion assay (Table 6); format: cell-based; conditions: Priestia megaterium, 8CU, read-out: Minimum Inhibitory Concentration, Bacillus megaterium 8CU
Source text: (§1) (a) Lowest twofold dilution giving zone of inhibition in the agarwell
(§2) (b) NRRL collection number, all the rest ate ATCC numbers.

Bacillus sp. E 27859 = assay: as above; format: cell-based; conditions: Bacillus
Source text: as §1, §2

Bacillus sp. TA 27860 = assay: as above; format: cell-based; conditions: Bacillus
Source text: as §1, §2

Bacillus subtilis 583 = assay: as above; format: cell-based
Source text: as §1, §2

MycoBacterium phiel 355 = assay: as above; format: cell-based; conditions: Mycobacterium, 355, read-out: Minimum Inhibitory Concentration, MycoBacterium phiel 355
Source text: as §1, §2

[1] = tested on: Paceilomyces variotl 25820; assay: as above; format: cell-based; conditions: read-out: Minimum Inhibitory Concentration, Paceilomyces variotl 25820
Source text: as §1, §2

Sarcina lutca 9341 = assay: as above; format: cell-based; conditions: Sarcina, 9341, read-out: Minimum Inhibitory Concentration, Sarcina lutca 9341
Source text: as §1, §2

Staph. aureus 6538 = assay: as above; format: cell-based; conditions: Staphylococcus aureus, 6538, read-out: Minimum Inhibitory Concentration, Staph. aureus 6538
Source text: as §1, §2

[2] = tested on: Streptococcus cellulosac 3313; assay: as above; format: cell-based; conditions: Streptococcus, 3313, read-out: Minimum Inhibitory Concentration, Streptococcus cellulosac 3313
Source text: as §1, §2

[3] = tested on: Streptococcus faecium 8043; assay: as above; format: cell-based
Source text: as §1, §2

Eimeria tenella = assay: Anti-coccidial effect of monensin urethanes added to the feed of infected chickens (Table 7); format: in vivo; conditions: infected untreated control 3.0, less than 2.5 significant
Protocol: This test utilizes ten chickens per drug group. Ten chickens are employed as a weight control and ten chickens as an infected control. The drug is given 48 hours in advance of the infection. One gm. of the test drug is mixed in a mechanical mixer with a sufficient amount of chicken feed to result in the desired dosage. The infection consists of approximately 200,000 oocysts given orally by pipette. The tests lasts for eleven days and then the surviving birds are autopsied and examined for gross lesions in the ceca. The test birds are rated according to the number of survivors and the number of cecal lesions. The results are expressed as average degree of infection (A.D.I.). An average degree of infection of less than 2.5 is considered to be significant.

Treponema hyodysenteriae = assay: Activity against Treponema hyodysenteriae (MIC, blood agar plates); format: cell-based; conditions: Brachyspira hyodysenteriae, 48 h, 42° C., anaerobic
Source text: Testing for activity against Treponema hyodysenteriae, a cause of swine dysentery consisted of inoculation of blood agar plates containing a series of two or fourfold dilutions of the monensin urethane derivatives with tenfold dilutions of the T. hyodysenteriae strain.

Plasmodium berghei = assay: Oral antimalarial activity against Plasmodium berghei in mice; format: in vivo; conditions: p.o.
Source text: Compounds of formula I wherein R4 is aryl, haloaryl or nitroaryl and their pharmaceutically acceptable salts are orally active as antimalarial agents.

[4] = Oral antihypertensive activity: blood pressure and heart rate (Table 9); format: in vivo
Source text: Compounds of formula I, and their pharmaceutically acceptable salts are orally active as antihypertensive agents.

rumen fluid = conditions: 50 ppm; control 100
[5] = SP.E27859, Bacillus sp. E 27859, read-out: Minimum Inhibitory Concentration
[6] = SP.TA27860, Bacillus sp. TA 27860, read-out: Minimum Inhibitory Concentration
[7] = Bacillus subtilis, 583, Bacillus subtilis 583 (NRRL), read-out: Minimum Inhibitory Concentration
[8] = Enterococcus faecium, 8043, Streptococcus faecium 8043, read-out: Minimum Inhibitory Concentration

| Structure (SMILES) | MIC (Bacillus megaterium 8CU) [µg/mL] | MIC (Bacillus sp. E 27859; [5]) [µg/mL] | MIC (Bacillus sp. TA 27860; [6]) [µg/mL] | MIC (Bacillus subtilis 583; [7]) [µg/mL] | MIC (MycoBacterium phiel 355) [µg/mL] | MIC [1] [µg/mL] | MIC (Sarcina lutca 9341) [µg/mL] | MIC (Staph. aureus 6538) [µg/mL] | MIC [2] [µg/mL] | MIC [3, 8] [µg/mL] | Average Degree of Infected (A.D.I.) (Eimeria tenella; 75 ppm in feed) | MIC (Treponema hyodysenteriae) [µg/mL] | ED50 (Plasmodium berghei) [mg/kg] | Day of Maximum Change, Blood Pressure ([4]; oral dose 1 mg/kg) [days] | Maximum Change (%), Blood Pressure ([4]; oral dose 1 mg/kg) [%] | Mean Blood Pressure at time of maximum effect ([4]; oral dose 1 mg/kg) [mm Hg] | Mean Blood Pressure before treatment ([4]; oral dose 1 mg/kg) [mm Hg] | other results |
| --- | --- | --- | --- | --- | --- | --- | --- | --- | --- | --- | --- | --- | --- | --- | --- | --- | --- | --- |
| CCC1(C2OC(C3OC(O)(COC(=O)Nc4ccc(Br)cc4)C(C)CC3C)CC2C)CCC(C2(C)CCC3(CC(O)C(C)C(C(C)C(OC)C(C)C(=O)O)O3)O2)O1 (centres unmarked) [Monensin A, 4-bromophenylurethane, 4-bromophenylaminocarbonyloxy-(0-11)-monensin, sodium salt] | 0.1 | 0.05 | 0.2 | 0.4 | 1.6 | 1.6 | 0.2 | 0.8 | 0.8 | 0.1 | 0.7 | 0.4 | 15 to 20 | 2 | 21 | 178 | 225 | Rate of Gas Production, Percent Production of Control Fermentations (rumen fluid): 103.0%; Total VFA, Percent Production of Control Fermentations (rumen fluid): 89.9% |
| CCC1(C2OC(C3OC(O)(COC(=O)Nc4ccc(Cl)cc4)C(C)CC3C)CC2C)CCC(C2(C)CCC3(CC(O)C(C)C(C(C)C(OC)C(C)C(=O)O)O3)O2)O1 (centres unmarked) [Monensin A, 4-chlorophenylurethane] | 0.2 (≈ 0.243 µM) | 0.02 (≈ 0.0243 µM) | 0.2 (≈ 0.243 µM) | 0.4 (≈ 0.485 µM) | 0.8 (≈ 0.97 µM) | 3.1 (≈ 3.76 µM) | 0.2 (≈ 0.243 µM) | 0.4 (≈ 0.485 µM) | 0.8 (≈ 0.97 µM) | 0.05 (≈ 0.0606 µM) | – | 0.08 (≈ 0.097 µM) | 2.3 | 5 | 20 | 179 | 224 | Average Degree of Infected (A.D.I.) (Eimeria tenella; 65 ppm in feed): 0.8; Day of Maximum Change, Heart Rate ([4]; oral dose 1 mg/kg): 5 days; Maximum Change (%), Heart Rate ([4]; oral dose 1 mg/kg): 19% |
| CCC1(C2OC(C3OC(O)(COC(=O)Nc4ccc(F)cc4)C(C)CC3C)CC2C)CCC(C2(C)CCC3(CC(O)C(C)C(C(C)C(OC)C(C)C(=O)O)O3)O2)O1 (centres unmarked) [Monensin A, 4-fluorophenylurethane] | 0.4 (≈ 0.495 µM) | 0.2 (≈ 0.248 µM) | 0.8 (≈ 0.99 µM) | 0.8 (≈ 0.99 µM) | 3.1 (≈ 3.84 µM) | 3.1 (≈ 3.84 µM) | 0.8 (≈ 0.99 µM) | 1.6 (≈ 1.98 µM) | 3.1 (≈ 3.84 µM) | 0.1 (≈ 0.124 µM) | – | 0.08 (≈ 0.099 µM) | – | – | – | – | – | Average Degree of Infected (A.D.I.) (Eimeria tenella; 125 ppm in feed): 1.0; Day of Maximum Change, Blood Pressure ([4]; oral dose 3 mg/kg): 2 days; Maximum Change (%), Blood Pressure ([4]; oral dose 3 mg/kg): 17%; Mean Blood Pressure at time of maximum effect ([4]; oral dose 3 mg/kg): 182 mm Hg; Mean Blood Pressure before treatment ([4]; oral dose 3 mg/kg): 220 mm Hg |
| CCC1(C2OC(C3OC(O)(COC(=O)Nc4ccc(C)cc4)C(C)CC3C)CC2C)CCC(C2(C)CCC3(CC(O)C(C)C(C(C)C(OC)C(C)C(=O)O)O3)O2)O1 (centres unmarked) [Monensin A, 4-methylphenylurethane, Monensin A, 4-methyl phenylurethane] | 0.2 (≈ 0.249 µM) | 0.05 (≈ 0.0622 µM) | 0.2 (≈ 0.249 µM) | 0.4 (≈ 0.497 µM) | 1.6 (≈ 1.99 µM) | 1.6 (≈ 1.99 µM) | 0.4 (≈ 0.497 µM) | 0.4 (≈ 0.497 µM) | 0.8 (≈ 0.995 µM) | 0.2 (≈ 0.249 µM) | 1.1 | – | – | 3 | 16 | 182 | 217 | Day of Maximum Change, Heart Rate ([4]; oral dose 1 mg/kg): 4 days; Maximum Change (%), Heart Rate ([4]; oral dose 1 mg/kg): 15% |
| CCC1(C2OC(C3OC(O)(COC(=O)Nc4ccc([N+](=O)[O-])cc4)C(C)CC3C)CC2C)CCC(C2(C)CCC3(CC(O)C(C)C(C(C)C(OC)C(C)C(=O)O)O3)O2)O1 (centres unmarked) [Monensin A, 4-nitrophenylurethane] | – | – | – | – | – | – | – | – | – | – | 0.5 | – | – | – | – | – | – | – |
| CCC1(C2OC(C3OC(O)(COC(=O)NC4CCCCC4)C(C)CC3C)CC2C)CCC(C2(C)CCC3(CC(O)C(C)C(C(C)C(OC)C(C)C(=O)O)O3)O2)O1 (centres unmarked) [Monensin A, cyclohexylurethane] | 0.4 (≈ 0.502 µM) | – | – | – | 3.1 (≈ 3.89 µM) | 3.1 (≈ 3.89 µM) | 0.8 (≈ 1 µM) | 1.6 (≈ 2.01 µM) | 3.1 (≈ 3.89 µM) | – | – | 0.4 (≈ 0.502 µM) | – | – | – | – | – | MIC (Bacillus sp. E 27859; SP.E27859, read-out: Minimum Inhibitory Concentration, Bacillus sp. E 27859): 0.2 µg/mL (≈ 0.251 µM); MIC (Bacillus sp. TA 27860; SP.TA27860, read-out: Minimum Inhibitory Concentration, Bacillus sp. TA 27860): 0.6 µg/mL (≈ 0.754 µM); MIC (Bacillus subtilis 583; Bacillus subtilis, 583, read-out: Minimum Inhibitory Concentration, Bacillus subtilis 583 (NRRL)): 0.8 µg/mL (≈ 1 µM); MIC ([3]; Enterococcus faecium, 8043, read-out: Minimum Inhibitory Concentration, Streptococcus faecium 8043): 0.1 µg/mL (≈ 0.126 µM); Average Degree of Infected (A.D.I.) (Eimeria tenella; 125 ppm in feed): 0.8 |
| CCC1(C2OC(C3OC(O)(COC(=O)Nc4ccccc4)C(C)CC3C)CC2C)CCC(C2(C)CCC3(CC(O)C(C)C(C(C)C(OC)C(C)C(=O)O)O3)O2)O1 (centres unmarked) [Monensin A, phenylurethane] | 0.4 (≈ 0.506 µM) | 0.05 (≈ 0.0633 µM) | 0.4 (≈ 0.506 µM) | 0.4 (≈ 0.506 µM) | 3.1 (≈ 3.92 µM) | 3.1 (≈ 3.92 µM) | 0.8 (≈ 1.01 µM) | 0.8 (≈ 1.01 µM) | 3.1 (≈ 3.92 µM) | 0.1 (≈ 0.127 µM) | 0.9 | 0.08 to 0.4 (≈ 0.101 to 0.506 µM) | 4 | – | – | – | – | Day of Maximum Change, Blood Pressure ([4]; oral dose 10 mg/kg): 2 days; Maximum Change (%), Blood Pressure ([4]; oral dose 10 mg/kg): 26%; Mean Blood Pressure at time of maximum effect ([4]; oral dose 10 mg/kg): 170 mm Hg; Mean Blood Pressure before treatment ([4]; oral dose 10 mg/kg): 229 mm Hg |
